In patent US12617777B2, “GPR84 antagonists and uses thereof” (Liminal BioSciences Limited, priority 2021, dated 2026):

What was measured:
neutrophils = experiment: Neutrophil migration assay (embelin as chemotactic agent, ATPlite readout); format: cell-based; settings: for IC50: Neutrophil, human neutrophils, embelin as chemotactic agent, read-out: Human Neutrophil migration inhibition IC50; for Human Neutrophil migration inhibition - fold potency to Control Compound: normalized to GPR84 antagonist Control Compound (average IC50 131 nM)
Procedure: Neutrophil migration assay. After isolation, neutrophils were resuspended in chemotaxis buffer (DMEM supplemented with 10 mM HEPES) at a concentration of 8.9×10^6 cells/ml. In a 96-well plate, 20 μl of compound solution in chemotaxis buffer is added to 180 μl of cell suspension. After incubation at 37° C. for 30 minutes, 75 μl of cell suspension is transferred in the upper chamber of a 5 μm pore size Corning HTS transwell. 235 μl of chemotaxis buffer containing the chemotactic agent (embelin) is added to the lower chamber of the transwell. After a 60-minute incubation time at 37° C. in 5%0 C02, the upper chamber of the transwell is removed and the plate is centrifuged at 1500 rpm for 6 minutes. Supermatant is removed and cells resuspended in 100 ul of PBS. ATP content was assessed using ATPlite Luminescence Assay System® according to manufacturer instructions (Perkin Elmer, Buckinghamshire, UK). Briefly, 50 μl of ATPlite buffer and 50 μl of lysis solution is added to the lower chamber of the Transwells. After incubation at room temperature, in the dark with constant agitation for 5 minutes, 150 μl of cell lysate is transferred in a 96 wells white plate and incubated for 10 minutes in the dark. Luminescence is read on a TECAN plate reader, Infinite M1000 (Tecan, Morrisville, NC).
The compound numbers correspond to the compound numbers in Table 1. […] Normalization of the results takes the donor's variation into account.

human GPR84 receptor = biological target: T1, human GPR84 receptor (Homo sapiens, UniProt Q9NQS5); experiment: Gαi biosensor BRET assay in HEK293 cells (antagonism of ZQ-16); format: cell-based; settings: for IC50: HEK293 cells, antagonism of 200 nmol/L ZQ-16; for inhibition at 10 µM: HEK293, single concentration 10 μM (designated F); for inhibition at 2 µM: HEK293, single concentration 2 μM (designated A)
T1 construct: host or cells: HEK293, transient transfection
T1 sequence (Q9NQS5 whole entry): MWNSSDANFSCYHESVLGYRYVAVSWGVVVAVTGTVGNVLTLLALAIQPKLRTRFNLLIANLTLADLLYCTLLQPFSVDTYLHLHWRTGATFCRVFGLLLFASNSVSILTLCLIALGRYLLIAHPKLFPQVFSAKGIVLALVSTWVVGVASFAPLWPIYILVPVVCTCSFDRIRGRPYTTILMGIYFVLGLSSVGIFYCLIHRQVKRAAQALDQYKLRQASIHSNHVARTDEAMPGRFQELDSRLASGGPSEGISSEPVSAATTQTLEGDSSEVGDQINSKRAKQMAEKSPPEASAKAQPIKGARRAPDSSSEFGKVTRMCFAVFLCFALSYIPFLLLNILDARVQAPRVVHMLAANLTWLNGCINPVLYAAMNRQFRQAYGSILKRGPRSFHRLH
Outline: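 HEK293 cells transiently expressing human GPR84, Gαi2-Rluc8, GFP10-Gγ2 and Gβ1, in Tyrode's buffer pH 7.5. Compounds preincubated 5 min at 37° C, then 200 nmol/L ZQ-16 for 5 min at room temperature; coelenterazine 400A 5 μmol/L. BRET2 acceptor/donor ratio, background- and vehicle-corrected net BRET.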

Row | IC50 (neutrophils) [nM] | inhibition at 15 µM (human GPR84 receptor; HEK293, single concentration 15 μM (designated H)) [%] | IC50 (human GPR84 receptor) [nM] | inhibition at 10 µM (human GPR84 receptor) [%] | inhibition at 2 µM (human GPR84 receptor) [%] | inhibition at 25 µM (human GPR84 receptor; HEK293, single concentration 25 μM (designated I)) [%] | inhibition at 6 µM (human GPR84 receptor; HEK293, single concentration 6.00 μM (designated D°)) [%] | Structure (SMILES) | Human Neutrophil migration inhibition - fold potency to Control Compound (neutrophils)
1 | 300 to 1000 | > 75 | > 3000 | – | – | – | – | Cc1cc(C#CC(C)(C)O)ccc1-c1cn(CC2CCCCO2)nn1 (stereo not drawn) [Compound I-79] | C (IC50≤0.5-fold relative to Control Compound)
2 | 300 to 1000 | – | > 3000 | 50 to 75 | – | – | – | FC(F)(F)c1cc(C#CC2CC2)ccc1-c1cn(CC2CCCCO2)nn1 (stereo not drawn) [Compound I-81] | C (IC50≤0.5-fold relative to Control Compound)
3 | ≤ 300 | – | 1000 to 3000 | > 75 | – | – | – | Cc1cc(C#CC2CC2)cnc1-c1cn(CC2CCCCO2)nn1 (stereo not drawn) [Compound I-107] | A (IC50 of >1.0-fold relative to Control Compound)
4 | ≤ 300 | – | > 3000 | > 75 | – | – | – | Cc1cc(C#CCN2CCC(F)(F)CC2)ccc1-c1cn(CC2CCCCO2)nn1 (stereo not drawn) [Compound I-118] | C (IC50≤0.5-fold relative to Control Compound)
5 | 300 to 1000 | – | 1000 to 3000 | – | – | – | – | Cc1cc(C#CCN2CC(C)(C)C2)ccc1-c1cn(CC2CCCCO2)nn1 (stereo not drawn) [Compound I-119] | C (IC50≤0.5-fold relative to Control Compound)
6 | 1000 to 3000 | – | 1000 to 3000 | 50 to 75 | – | – | – | Cc1cc(C#CCN(C)CC2(C(F)(F)F)CC2)ccc1-c1cn(CC2CCCCO2)nn1 (stereo not drawn) [Compound I-138] | C (IC50≤0.5-fold relative to Control Compound)
7 | 1000 to 3000 | – | – | – | 25 to 50 | – | – | Cc1cc(N2CC3(CCCN3Cc3ccccc3)C2)ccc1-c1cn(CC2CCCCO2)nn1 (stereo not drawn) [Compound I-149] | C (IC50≤0.5-fold relative to Control Compound)
8 | ≤ 300 | – | 300 to 1000 | > 75 | – | – | – | Cc1cc(C#CCNc2ccccc2)ccc1-c1cn(C[C@H]2CCCCO2)nn1 [Compound I-166] | A (IC50 of >1.0-fold relative to Control Compound)
9 | ≤ 300 | – | > 3000 | – | – | – | – | CN(C)c1cc(C#CCNCc2ccccc2)ccc1-c1cn(CC2CCCCO2)nn1 (stereo not drawn) [Compound I-188] | A (IC50 of >1.0-fold relative to Control Compound)
10 | ≤ 300 | – | 300 to 1000 | – | > 75 | – | – | COC(c1cn(CC2CCCCO2)nn1)c1cc(C#CC2CC2)ccc1C (stereo not drawn) [Compound I-417] | A (IC50 of >1.0-fold relative to Control Compound)
11 | ≤ 300 | – | 300 to 1000 | – | – | – | > 75 | Cc1cc(N2CCN(Cc3ccccn3)CC2)ccc1-c1cn(C[C@H]2CCCCO2)nn1 [Compound I-423] | A (IC50 of >1.0-fold relative to Control Compound)
12 | ≤ 300 | – | 1000 to 3000 | > 75 | – | – | – | Cc1cc(C#CC2CC2)cnc1-c1cn(CC2CCCCO2)cn1 (stereo not drawn) [Compound I-424] | A (IC50 of >1.0-fold relative to Control Compound)
13 | ≤ 300 | – | 1000 to 3000 | 50 to 75 | – | – | – | Cc1cc(N2CC(C)(NCc3ccccn3)C2)ccc1-c1cn(CC2CCCCO2)nn1 (stereo not drawn) [Compound I-441] | A (IC50 of >1.0-fold relative to Control Compound)
14 | ≤ 300 | – | 300 to 1000 | > 75 | – | – | – | Cc1cc(N2CC(C)(OCc3ccccn3)C2)ccc1-c1cn(CC2CCCCO2)nn1 (stereo not drawn) [Compound I-452] | A (IC50 of >1.0-fold relative to Control Compound)
15 | ≤ 300 | – | ≤ 300 | > 75 | – | – | – | Cc1cc(C#CCn2cc(-c3ccc([N+](=O)[O-])cc3)nn2)ccc1-c1cn(CC2CCCCO2)nn1 (stereo not drawn) [Compound I-454] | A (IC50 of >1.0-fold relative to Control Compound)
16 | ≤ 300 | – | 1000 to 3000 | > 75 | – | – | – | Cc1cc(C#CC2CC2)ccc1-c1cn(CC2CCC(C)(C)CO2)nn1 (stereo not drawn) [Compound I-455] | B (IC50 of >0.5-≤1.0-fold relative to Control Compound)

More lines, now with the values behind:

Row | Structure (SMILES) | IC50 (neutrophils) [nM] | inhibition at 15 µM (human GPR84 receptor; HEK293, single concentration 15 μM (designated H)) [%] | IC50 (human GPR84 receptor) [nM] | inhibition at 10 µM (human GPR84 receptor) [%] | inhibition at 2 µM (human GPR84 receptor) [%] | inhibition at 25 µM (human GPR84 receptor; HEK293, single concentration 25 μM (designated I)) [%] | inhibition at 6 µM (human GPR84 receptor; HEK293, single concentration 6.00 μM (designated D°)) [%] | Human Neutrophil migration inhibition - fold potency to Control Compound (neutrophils)
17 | Cc1cc(C#CCNCc2ccccc2)ccc1-c1cn(CC2CCCCO2)nn1 (stereo not drawn) [Compound I-86] | 300 to 1000 | – | 300 to 1000 | – | – | – | – | C (IC50≤0.5-fold relative to Control Compound)
18 | CN(C)c1cc(C#CC2CC2)ccc1-c1cn(CC2CCCCO2)nn1 (stereo not drawn) [Compound I-87] | 1000 to 3000 | – | 1000 to 3000 | – | – | – | – | C (IC50≤0.5-fold relative to Control Compound)
19 | CC(C)c1cc(C#CC2CC2)ccc1-c1cn(CC2CCCCO2)nn1 (stereo not drawn) [Compound I-88] | 1000 to 3000 | – | 1000 to 3000 | – | – | – | – | C (IC50≤0.5-fold relative to Control Compound)
20 | Cc1cc(C#CC2(O)CCCCC2)ccc1-c1cn(CC2CCCCO2)nn1 (stereo not drawn) [Compound I-94] | 1000 to 3000 | – | 1000 to 3000 | > 75 | – | – | – | C (IC50≤0.5-fold relative to Control Compound)
21 | Cc1cc(C#CCN2CCN(c3ccccc3)CC2)ccc1-c1cn(CC2CCCCO2)nn1 (stereo not drawn) [Compound I-120] | ≤ 300 | – | ≤ 300 | – | – | – | – | B (IC50 of >0.5-≤1.0-fold relative to Control Compound)
22 | Cc1cc(C#CCN(C)CC2CC2)ccc1-c1cn(CC2CCCCO2)nn1 (stereo not drawn) [Compound I-121] | 300 to 1000 | – | 300 to 1000 | > 75 | – | – | – | C (IC50≤0.5-fold relative to Control Compound)
23 | Cc1cc(C#CCNC(=O)OC(C)(C)C)ccc1-c1cn(CC2CCCCO2)nn1 (stereo not drawn) [Compound I-177] | ≤ 300 | – | 1000 to 3000 | 50 to 75 | – | – | – | A (IC50 of >1.0-fold relative to Control Compound)
24 | CC(C)Oc1cc(C#CC2CC2)ccc1-c1cn(CC2CCCCO2)nn1 (stereo not drawn) [Compound I-187] | ≤ 300 | – | > 3000 | – | – | – | – | B (IC50 of >0.5-≤1.0-fold relative to Control Compound)
25 | Cc1cc(C#CC2CC2)cnc1-c1cn(C[C@H]2CCCCO2)nn1 [Compound I-245] | 300 to 1000 | – | 1000 to 3000 | > 75 | – | – | – | C (IC50≤0.5-fold relative to Control Compound)
26 | Clc1cc(C#CC2CC2)ccc1-c1cn(CC2CCCCO2)nn1 (stereo not drawn) [Compound I-315] | 300 to 1000 | – | > 3000 | – | – | > 75 | – | C (IC50≤0.5-fold relative to Control Compound)
27 | Cc1cc(N2CC(C)(CNc3ccccc3)C2)ccc1-c1cn(CC2CCCCO2)nn1 (stereo not drawn) [Compound I-411] | 300 to 1000 | – | ≤ 300 | > 75 | – | – | – | B (IC50 of >0.5-≤1.0-fold relative to Control Compound)
28 | CC(C)Oc1cc(C#CCN2CC(C)(C)C2)ccc1-c1cn(C[C@H]2CCCCO2)nn1 [Compound I-413] | ≤ 300 | – | 300 to 1000 | – | > 75 | – | – | B (IC50 of >0.5-≤1.0-fold relative to Control Compound)
29 | Cc1ccc(C#CC2CC2)cc1Cc1nnn(CC2CCCCO2)n1 (stereo not drawn) [Compound I-418] | 1000 to 3000 | – | 300 to 1000 | – | > 75 | – | – | C (IC50≤0.5-fold relative to Control Compound)
30 | Cc1cc(N2CC(C)(N(C)Cc3ccccn3)C2)ccc1-c1cn(CC2CCCCO2)nn1 (stereo not drawn) [Compound I-451] | ≤ 300 | – | 300 to 1000 | > 75 | – | – | – | A (IC50 of >1.0-fold relative to Control Compound)
31 | Cc1cc(C#CCn2cc(-c3ccc(N(C)C)cc3)nn2)ccc1-c1cn(CC2CCCCO2)nn1 (stereo not drawn) [Compound I-456] | ≤ 300 | – | ≤ 300 | – | > 75 | – | – | A (IC50 of >1.0-fold relative to Control Compound)
32 | CCc1cc(N2CCN(Cc3ccccn3)CC2)cnc1-c1cn(C[C@H]2CCCCO2)nn1 [Compound I-459] | ≤ 300 | – | 1000 to 3000 | > 75 | – | – | – | C (IC50≤0.5-fold relative to Control Compound)
